According to ChEMBL document CHEMBL1201862, “PubChem BioAssay data set” (2004):
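48-hour exposure; five concentrations; linearly interpolated endpoints. Abbreviation: GI50, concentration required for 50% inhibition of growth.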 The source made the active and inactive calls. No stated cut-off is given here; in the data, active = GI50 up to about 1.1 µM and inactive = higher.

Legend:
Assay in all cases: DTP human tumour cell line panel, 48 h
[1] = test system: KM12
[2] = test system: DU-145
[3] = test system: COLO 205
[4] = test system: SK-OV-3
[5] = test system: SNB-19
[6] = test system: SF-268
[7] = test system: HT-29
[8] = test system: HOP-92
[9] = test system: A549
[10] = test system: NCI-H23
[11] = test system: NCI-H226
[12] = test system: UACC-62
[13] = test system: MDA-MB-231
[14] = test system: HCT-15
[15] = test system: ACHN
[16] = test system: A498
[17] = test system: UO-31
[18] = test system: HCT-116
[19] = test system: SK-MEL-5

Compound | GI50 [1] | GI50 [2] | GI50 [3] | GI50 [4] | GI50 [5] | GI50 [6] | GI50 [7] | GI50 [8] | GI50 [9] | GI50 [10] | GI50 [11] | GI50 [12] | GI50 [13] | GI50 [14] [µM] | GI50 [15] | GI50 [16] | GI50 [17] | GI50 [18] | GI50 [19]
Nc1nc(N)c2ncn(-c3ccc(Cl)c(Cl)c3)c2n1 | 25.4 µM (inactive) | 18.5 µM (inactive) | 14.9 µM (inactive) | 24.9 µM (inactive) | 57 µM (inactive) | 31.7 µM (inactive) | 22.2 µM (inactive) | 52.7 µM (inactive) | 30.8 µM (inactive) | 15.9 µM (inactive) | 35.2 µM (inactive) | 10.1 µM (inactive) | 23.1 µM (inactive) | 26 | 42.2 µM (inactive) | 13.3 µM (inactive) | 18.5 µM (inactive) | 16.1 µM (inactive) | 31.2 µM (inactive)
Cc1c(C)c(S(=O)(=O)N(CCCCCCN)OCCCN)c(C)c2c1OC(C)(C)CC2 | 1.91 µM (inactive) | 26.4 µM (inactive) | 4.29 µM (inactive) | 10.1 µM (inactive) | 3.96 µM (inactive) | 6.93 µM (inactive) | 5.6 µM (inactive) | 4.16 µM (inactive) | 4.94 µM (inactive) | 8.83 µM (inactive) | 5.37 µM (inactive) | 11.4 µM (inactive) | 3.56 µM (inactive) | 15.1 | 8.99 µM (inactive) | 16.1 µM (inactive) | 11.8 µM (inactive) | 1.97 µM (inactive) | 10.6 µM (inactive)
O=C1C(C(O)(C(F)(F)F)C(F)(F)F)CCC1C(O)(C(F)(F)F)C(F)(F)F (stereo not given) | 0.946 µM (active) | 7.96 µM (inactive) | 0.0481 µM (active) | 23 µM (inactive) | 17.9 µM (inactive) | 5.7 µM (inactive) | 0.301 µM (active) | < 0.01 µM (active) | 1.91 µM (inactive) | 0.769 µM (active) | 0.33 µM (active) | 1.78 µM (inactive) | 0.746 µM (active) | 28.3 | 1.8 µM (inactive) | 0.964 µM (active) | 1.09 µM (active) | 0.556 µM (active) | 1.72 µM (inactive)
CC(C)(C)c1cc(C2COC(c3cc(C(C)(C)C)c(O)c(C(C)(C)C)c3)CO2)cc(C(C)(C)C)c1O (stereo not given) | > 100 µM (inactive) | > 100 µM (inactive) | 33.1 µM (inactive) | > 100 µM (inactive) | > 100 µM (inactive) | > 100 µM (inactive) | > 100 µM (inactive) | > 100 µM (inactive) | > 100 µM (inactive) | > 100 µM (inactive) | > 100 µM (inactive) | > 100 µM (inactive) | > 100 µM (inactive) | > 100 | > 100 µM (inactive) | > 100 µM (inactive) | > 100 µM (inactive) | 51.6 µM (inactive) | > 100 µM (inactive)
CC(=O)O[C@H]1C[C@]2(O)[C@@H]3CC[C@@H]4C[C@@H](O)CC[C@]4(C)[C@H]3CC[C@]2(C)[C@H]1C1=CC(=O)OC1 | 0.398 µM (active) | 0.0316 µM (active) | 0.236 µM (active) | 0.214 µM (active) | 0.381 µM (active) | 0.0429 µM (active) | 0.0986 µM (active) | 0.192 µM (active) | < 0.0144 µM (active) | 0.0366 µM (active) | 0.288 µM (active) | 0.211 µM (active) | 0.404 µM (active) | 0.0843 | 0.031 µM (active) | 0.0977 µM (active) | 0.0632 µM (active) | 0.033 µM (active) | 0.0318 µM (active)
CC1=NN(C(=O)c2ccncc2)C(=O)C1/N=N/c1ccc2ccccc2c1 (stereo not given) | 17.1 µM (inactive) | > 73.5 µM (inactive) | 18.7 µM (inactive) | > 100 µM (inactive) | > 100 µM (inactive) | 69 µM (inactive) | 11.7 µM (inactive) | > 100 µM (inactive) | 28.1 µM (inactive) | > 64.3 µM (inactive) | > 100 µM (inactive) | 44.2 µM (inactive) | 20.8 µM (inactive) | 7.41 | > 100 µM (inactive) | > 100 µM (inactive) | > 100 µM (inactive) | 32.7 µM (inactive) | 19.2 µM (inactive)
O=C(O)c1ccc(Nc2ccnc3cc(Cl)ccc23)cc1O | > 100 µM (inactive) | > 100 µM (inactive) | > 100 µM (inactive) | > 100 µM (inactive) | > 100 µM (inactive) | > 100 µM (inactive) | > 100 µM (inactive) | > 100 µM (inactive) | > 100 µM (inactive) | > 100 µM (inactive) | > 100 µM (inactive) | > 100 µM (inactive) | > 100 µM (inactive) | > 100 | > 100 µM (inactive) | > 100 µM (inactive) | > 100 µM (inactive) | > 100 µM (inactive) | > 100 µM (inactive)
O=C(NC/C(Cl)=C/Cl)Nc1c2ccccc2nc2ccccc12 | > 100 µM (inactive) | 54.5 µM (inactive) | 29 µM (inactive) | > 100 µM (inactive) | > 100 µM (inactive) | > 100 µM (inactive) | 53.2 µM (inactive) | 41.6 µM (inactive) | > 100 µM (inactive) | > 100 µM (inactive) | 31.8 µM (inactive) | > 100 µM (inactive) | 22 µM (inactive) | 59 | 80.5 µM (inactive) | 67.1 µM (inactive) | > 100 µM (inactive) | 24.3 µM (inactive) | 57.9 µM (inactive)
Cc1nnc2ccccc2c1O | > 100 µM (inactive) | > 100 µM (inactive) | > 100 µM (inactive) | > 100 µM (inactive) | > 100 µM (inactive) | > 100 µM (inactive) | > 100 µM (inactive) | > 100 µM (inactive) | > 100 µM (inactive) | > 100 µM (inactive) | > 100 µM (inactive) | > 100 µM (inactive) | > 100 µM (inactive) | > 100 | > 100 µM (inactive) | > 100 µM (inactive) | > 100 µM (inactive) | > 100 µM (inactive) | > 100 µM (inactive)
Cn1c(=O)c2c(nc3n2CCC(=O)N3CCCCl)n(C)c1=O | > 100 µM (inactive) | > 100 µM (inactive) | > 100 µM (inactive) | > 100 µM (inactive) | > 100 µM (inactive) | > 100 µM (inactive) | > 100 µM (inactive) | > 100 µM (inactive) | > 100 µM (inactive) | > 100 µM (inactive) | > 100 µM (inactive) | > 100 µM (inactive) | > 100 µM (inactive) | > 100 | > 100 µM (inactive) | > 100 µM (inactive) | > 100 µM (inactive) | > 100 µM (inactive) | > 100 µM (inactive)
CNC(=O)OCC1=C(COC(=O)NC)C(C)N(c2ccccc2)C1 (stereo not given) | 30.5 µM (inactive) | 54.5 µM (inactive) | 21.2 µM (inactive) | 42.4 µM (inactive) | 58.5 µM (inactive) | 37.7 µM (inactive) | 22.6 µM (inactive) | 28.8 µM (inactive) | 48 µM (inactive) | 38.1 µM (inactive) | 11.3 µM (inactive) | 26.2 µM (inactive) | 41.2 µM (inactive) | 31 | 33.7 µM (inactive) | 3.05 µM (inactive) | 22.9 µM (inactive) | 39.9 µM (inactive) | 17.1 µM (inactive)
CC(=O)NC(Cc1c[nH]c2ccccc12)C(=O)O (stereo not given) | > 100 µM (inactive) | > 100 µM (inactive) | > 100 µM (inactive) | > 100 µM (inactive) | > 100 µM (inactive) | > 100 µM (inactive) | > 100 µM (inactive) | > 100 µM (inactive) | > 100 µM (inactive) | > 100 µM (inactive) | > 100 µM (inactive) | > 100 µM (inactive) | > 100 µM (inactive) | > 100 | > 100 µM (inactive) | > 100 µM (inactive) | > 100 µM (inactive) | > 100 µM (inactive) | > 100 µM (inactive)
O=C1C(Cl)C(c2cc3cc(Br)ccc3nc2Cl)N1c1ccc(Cl)cc1 (stereo not given) | 8.97 µM (inactive) | 6.95 µM (inactive) | 4.89 µM (inactive) | 10.3 µM (inactive) | 8.43 µM (inactive) | 4.51 µM (inactive) | 7.16 µM (inactive) | 3.43 µM (inactive) | 10.4 µM (inactive) | 5.7 µM (inactive) | 4.26 µM (inactive) | 4.22 µM (inactive) | 3.9 µM (inactive) | 4.86 | 4.5 µM (inactive) | 16.5 µM (inactive) | 0.815 µM (active) | 5.31 µM (inactive) | 3.21 µM (inactive)
COC(=O)c1ccc(NC(=O)O/N=C(\Cl)C(C)C)cc1 | 15.1 µM (inactive) | 18.5 µM (inactive) | 1.94 µM (inactive) | 17.8 µM (inactive) | 16.9 µM (inactive) | 26.2 µM (inactive) | 4.31 µM (inactive) | 1.81 µM (inactive) | 19.5 µM (inactive) | 17.1 µM (inactive) | 18.9 µM (inactive) | 13.1 µM (inactive) | 7.08 µM (inactive) | 1.83 | 1.74 µM (inactive) | 18.4 µM (inactive) | 15.4 µM (inactive) | 5.61 µM (inactive) | 4.53 µM (inactive)
CN(C)N1C(=O)c2ccccc2NC1c1ccccc1 (stereo not given) | > 100 µM (inactive) | > 100 µM (inactive) | > 100 µM (inactive) | > 100 µM (inactive) | > 100 µM (inactive) | > 100 µM (inactive) | > 100 µM (inactive) | > 100 µM (inactive) | > 100 µM (inactive) | > 100 µM (inactive) | > 100 µM (inactive) | > 100 µM (inactive) | > 100 µM (inactive) | > 100 | > 100 µM (inactive) | > 100 µM (inactive) | > 100 µM (inactive) | > 100 µM (inactive) | > 100 µM (inactive)
